Values after ≈ are worked out from the molar mass of the structure shown.
How the values were obtained:
[1] = biological target: Vascular endothelial growth factor receptor 2 (Homo sapiens, UniProt P35968); experiment: Inhibition of His-tagged human VEGFR2 expressed in Sf9 cells
[2] = biological target: T1, Fibroblast growth factor receptor 1 (Homo sapiens, UniProt P11362); experiment: Inhibition of His-tagged human FGFR1 expressed in Sf9 cells
[3] = Inhibition of VEGFR
[4] = Inhibition of PDGFR
Angiopoietin-1 receptor = Angiopoietin-1 receptor (Homo sapiens, UniProt Q02763); experiment: Inhibition of Tie-2
Sequence of Angiopoietin-1 receptor (Q02763 whole entry): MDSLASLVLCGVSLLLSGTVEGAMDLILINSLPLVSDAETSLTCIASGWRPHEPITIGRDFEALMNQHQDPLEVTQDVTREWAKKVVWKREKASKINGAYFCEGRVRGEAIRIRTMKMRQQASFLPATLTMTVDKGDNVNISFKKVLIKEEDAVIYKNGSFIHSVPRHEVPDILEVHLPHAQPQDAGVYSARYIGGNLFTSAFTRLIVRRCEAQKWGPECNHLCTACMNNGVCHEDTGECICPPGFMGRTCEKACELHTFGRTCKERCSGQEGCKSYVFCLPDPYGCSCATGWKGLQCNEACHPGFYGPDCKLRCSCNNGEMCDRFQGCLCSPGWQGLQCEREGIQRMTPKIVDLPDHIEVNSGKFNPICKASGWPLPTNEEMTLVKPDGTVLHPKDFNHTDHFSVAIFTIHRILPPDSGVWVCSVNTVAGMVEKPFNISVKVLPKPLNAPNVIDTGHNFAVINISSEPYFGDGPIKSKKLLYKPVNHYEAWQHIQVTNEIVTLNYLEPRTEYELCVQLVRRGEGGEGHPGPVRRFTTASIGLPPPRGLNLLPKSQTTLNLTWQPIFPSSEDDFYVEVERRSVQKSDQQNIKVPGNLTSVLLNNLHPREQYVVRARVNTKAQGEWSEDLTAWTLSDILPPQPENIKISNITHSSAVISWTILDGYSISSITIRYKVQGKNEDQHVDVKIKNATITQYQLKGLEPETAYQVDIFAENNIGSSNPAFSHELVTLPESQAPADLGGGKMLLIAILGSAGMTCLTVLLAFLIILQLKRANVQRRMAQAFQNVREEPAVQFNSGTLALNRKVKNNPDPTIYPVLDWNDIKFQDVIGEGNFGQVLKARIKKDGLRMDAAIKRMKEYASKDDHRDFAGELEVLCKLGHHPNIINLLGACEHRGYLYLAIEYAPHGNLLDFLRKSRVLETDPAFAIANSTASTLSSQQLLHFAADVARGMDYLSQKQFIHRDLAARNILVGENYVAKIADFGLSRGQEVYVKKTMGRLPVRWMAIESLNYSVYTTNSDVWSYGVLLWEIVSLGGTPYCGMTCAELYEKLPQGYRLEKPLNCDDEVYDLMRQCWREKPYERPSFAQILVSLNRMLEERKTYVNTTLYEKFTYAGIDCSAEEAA

[5] = biological target: T1, Fibroblast growth factor receptor 1; experiment: Inhibition of FGFR1
HUVEC [6] = experiment: Antiproliferative activity against HUVEC cells assessed as inhibition of FGF-stimulated proliferation after 5 days by WST-8 assay; conditions: Homo sapiens, 120 h
[7] = Solubility of the compound at pH 6.8; format: physicochemical; conditions: buffer
HUVEC [8] = experiment: Antiproliferative activity against HUVEC cells assessed as inhibition of VEGF-stimulated proliferation after 5 days by WST-8 assay; conditions: Homo sapiens, 120 h

Sequence of Vascular endothelial growth factor receptor 2 (P35968 whole entry): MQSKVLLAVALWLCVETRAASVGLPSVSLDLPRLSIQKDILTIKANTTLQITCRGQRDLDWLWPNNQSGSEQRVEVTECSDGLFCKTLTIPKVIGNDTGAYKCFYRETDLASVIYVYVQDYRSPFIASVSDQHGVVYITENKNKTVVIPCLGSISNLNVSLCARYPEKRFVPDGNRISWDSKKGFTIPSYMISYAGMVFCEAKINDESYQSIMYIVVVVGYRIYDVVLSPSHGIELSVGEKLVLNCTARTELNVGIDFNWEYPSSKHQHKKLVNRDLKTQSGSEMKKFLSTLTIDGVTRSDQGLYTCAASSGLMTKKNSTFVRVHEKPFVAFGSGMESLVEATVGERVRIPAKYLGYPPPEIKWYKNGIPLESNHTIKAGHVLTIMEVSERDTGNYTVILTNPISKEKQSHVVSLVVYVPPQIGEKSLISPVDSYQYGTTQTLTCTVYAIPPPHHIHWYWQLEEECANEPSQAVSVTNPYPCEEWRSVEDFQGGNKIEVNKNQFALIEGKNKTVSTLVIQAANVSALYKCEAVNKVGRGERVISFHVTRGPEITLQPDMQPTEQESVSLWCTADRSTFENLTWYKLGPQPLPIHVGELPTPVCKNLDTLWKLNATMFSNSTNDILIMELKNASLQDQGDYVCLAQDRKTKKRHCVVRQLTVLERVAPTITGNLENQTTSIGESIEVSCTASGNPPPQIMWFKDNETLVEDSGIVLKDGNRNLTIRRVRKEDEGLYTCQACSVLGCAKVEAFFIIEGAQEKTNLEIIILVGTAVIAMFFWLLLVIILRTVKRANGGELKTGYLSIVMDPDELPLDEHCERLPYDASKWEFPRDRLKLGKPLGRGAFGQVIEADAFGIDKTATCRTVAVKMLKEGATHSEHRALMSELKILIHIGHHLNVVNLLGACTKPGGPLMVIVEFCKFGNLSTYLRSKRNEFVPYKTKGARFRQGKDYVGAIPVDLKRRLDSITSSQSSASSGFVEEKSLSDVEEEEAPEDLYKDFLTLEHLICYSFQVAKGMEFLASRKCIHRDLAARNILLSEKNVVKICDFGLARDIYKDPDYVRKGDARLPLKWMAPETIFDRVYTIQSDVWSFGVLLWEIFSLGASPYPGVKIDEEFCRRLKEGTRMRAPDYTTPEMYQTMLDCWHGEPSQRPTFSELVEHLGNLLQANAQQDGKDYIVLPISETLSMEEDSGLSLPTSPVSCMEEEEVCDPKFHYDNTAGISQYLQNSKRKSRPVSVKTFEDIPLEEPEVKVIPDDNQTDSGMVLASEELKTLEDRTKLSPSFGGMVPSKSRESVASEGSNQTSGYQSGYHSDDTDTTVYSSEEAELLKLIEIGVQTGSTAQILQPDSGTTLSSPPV
T1 sequence (P11362 whole entry): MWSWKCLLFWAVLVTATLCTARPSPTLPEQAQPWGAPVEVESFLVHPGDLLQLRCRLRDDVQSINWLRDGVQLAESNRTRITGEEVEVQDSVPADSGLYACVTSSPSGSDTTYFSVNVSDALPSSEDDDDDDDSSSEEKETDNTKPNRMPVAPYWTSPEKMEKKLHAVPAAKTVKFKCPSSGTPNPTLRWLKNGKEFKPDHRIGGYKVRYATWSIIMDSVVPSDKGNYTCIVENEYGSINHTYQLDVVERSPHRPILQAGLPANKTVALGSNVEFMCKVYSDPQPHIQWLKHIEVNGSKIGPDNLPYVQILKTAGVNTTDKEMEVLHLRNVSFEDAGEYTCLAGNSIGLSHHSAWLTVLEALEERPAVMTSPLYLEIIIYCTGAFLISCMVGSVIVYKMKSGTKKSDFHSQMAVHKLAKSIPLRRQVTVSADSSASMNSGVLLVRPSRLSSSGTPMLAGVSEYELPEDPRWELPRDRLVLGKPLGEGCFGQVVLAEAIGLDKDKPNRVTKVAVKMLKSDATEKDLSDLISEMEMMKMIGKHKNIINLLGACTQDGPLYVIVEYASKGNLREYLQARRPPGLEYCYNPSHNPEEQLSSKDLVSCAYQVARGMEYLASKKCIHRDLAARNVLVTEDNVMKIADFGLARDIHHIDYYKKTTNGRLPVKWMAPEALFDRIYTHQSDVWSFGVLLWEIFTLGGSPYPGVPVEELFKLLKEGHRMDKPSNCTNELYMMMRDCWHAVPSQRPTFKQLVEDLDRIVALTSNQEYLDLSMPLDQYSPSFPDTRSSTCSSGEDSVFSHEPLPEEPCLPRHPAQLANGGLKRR

| IC50 [1] [nM] | Structure (SMILES) | other results |
| --- | --- | --- |
| 8.9 | Cn1ccc2ncnc(Oc3ccc(NC(=O)Nc4cc(C(C)(C)C)on4)c(Cl)c3)c21 | – |
| 2.7 | O=C(Nc1cccc(C(F)(F)F)c1)Nc1ccc(Oc2ncnc3ccn(CCOCCO)c23)cc1Cl | – |
| 9 | COCCn1ccc2ncnc(Oc3ccc(NC(=O)Nc4cccc(C(F)(F)F)c4)c(Cl)c3)c21 | – |
| 4 | O=C(Nc1cccc(C(F)(F)F)c1)Nc1ccc(Oc2ncnc3ccn(CCO)c23)cc1Cl | – |
| 14 | COCc1cc2ncnc(Oc3ccc(NC(=O)Nc4cccc(C(F)(F)F)c4)c(Cl)c3)c2n1C | – |
| 18 | Cn1c(C(C)(C)O)cc2ncnc(Oc3ccc(NC(=O)Nc4cccc(C(F)(F)F)c4)c(Cl)c3)c21 | – |
| – | Cn1ccc2ncnc(Oc3ccc(NC(=O)Nc4cccc(C(F)(F)F)c4)c(F)c3)c21 | IC50 [2]: > 10000 nM; IC50 [3]: < 100 nM; IC50 [4]: < 100 nM; IC50 (Angiopoietin-1 receptor): < 100 nM; IC50 [5]: > 10000 nM |
| 210 | Cn1ccc2ncnc(Oc3ccc(NC(=O)Nc4ccccn4)c(Cl)c3)c21 | IC50 [2]: > 10000 nM |
| 230 | Cn1ccc2ncnc(Oc3ccc(NC(=O)Nc4cccnc4)c(Cl)c3)c21 | IC50 [2]: > 10000 nM |
| – | Cn1ccc2ncnc(Oc3ccc(NC(=O)Nc4cccc(C(F)(F)F)c4)c(Cl)c3)c21 | IC50 (HUVEC [6]): 230 nM; solubility [7]: 0.09 µg/mL (≈ 0.195 µM) |
| 650 | Cn1ccc2ncnc(Oc3ccc(NC(=O)Nc4ccncc4)c(Cl)c3)c21 | IC50 [2]: > 10000 nM |
| 2.7 | Cn1ccc2ncnc(Oc3ccc(NC(=O)Nc4cc(C(F)(F)F)ccn4)c(Cl)c3)c21 | – |
| 2.9 | Cn1ccc2ncnc(Oc3ccc(NC(=O)Nc4cncc(C(F)(F)F)c4)c(Cl)c3)c21 | – |
| 3.8 | Cn1ccc2ncnc(Oc3ccc(NC(=O)Nc4ccnc(C(F)(F)F)c4)c(Cl)c3)c21 | – |
| 4 | Cn1ccc2ncnc(Oc3ccc(NC(=O)Nc4cnn(CC(F)(F)F)c4)c(Cl)c3)c21 | – |
| 7.6 | Cn1ccc2ncnc(Oc3ccc(NC(=O)Nc4cnn(C(C)(C)C)c4)c(Cl)c3)c21 | – |
| 19 | Cn1nc(C(C)(C)C)cc1NC(=O)Nc1ccc(Oc2ncnc3ccn(C)c23)cc1Cl | – |
| 9.4 | COc1ccc(NC(=O)Nc2ccc(Oc3ncnc4ccn(C)c34)cc2Cl)cc1C(F)(F)F | – |
| 61 | Cn1ccc2ncnc(Oc3ccc(NC(=O)Nc4ccc(N5CCOCC5)c(C(F)(F)F)c4)c(Cl)c3)c21 | – |
| 19 | Cn1ccc2ncnc(Oc3ccc(NC(=O)Nc4ccc(CN5CCOCC5)c(C(F)(F)F)c4)c(Cl)c3)c21 | – |
| 9.3 | CN1CCN(Cc2ccc(NC(=O)Nc3ccc(Oc4ncnc5ccn(C)c45)cc3Cl)cc2C(F)(F)F)CC1 | IC50 (HUVEC [8]): 38 nM; IC50 (HUVEC [6]): 20 nM; solubility [7]: 19 µg/mL (≈ 33.1 µM) |
| 12 | CN1CCC(Oc2ccc(NC(=O)Nc3ccc(Oc4ncnc5ccn(C)c45)cc3Cl)cc2C(F)(F)F)CC1 | – |
| 20 | COc1cc(NC(=O)Nc2ccc(Oc3ncnc4ccn(C)c34)cc2Cl)cc(C(F)(F)F)c1 | – |
| 60 | Cn1ccc2ncnc(Oc3ccc(NC(=O)Nc4cc(N5CCOCC5)cc(C(F)(F)F)c4)c(Cl)c3)c21 | – |
| 23 | Cn1ccc2ncnc(Oc3ccc(NC(=O)Nc4cc(CN5CCOCC5)cc(C(F)(F)F)c4)c(Cl)c3)c21 | – |
| 11 | CN1CCN(Cc2cc(NC(=O)Nc3ccc(Oc4ncnc5ccn(C)c45)cc3Cl)cc(C(F)(F)F)c2)CC1 | – |
| 9.7 | Cn1c(CO)cc2ncnc(Oc3ccc(NC(=O)Nc4cccc(C(F)(F)F)c4)c(Cl)c3)c21 | – |

— ChEMBL document CHEMBL1250549, “N-phenyl-N'-[4-(5H-pyrrolo[3,2-d]pyrimidin-4-yloxy)phenyl]ureas as novel inhibitors of VEGFR and FGFR kinases” (Bioorg Med Chem, 2010)
